Patent US7598421B2, “Materials for the delivery of biologically-active material to cells” (UCL Biomedica PLC, priority 2002, dated 2009)

Columns and labels:
[1] = test system: Human airway epithelial cells; assay: Transfection efficiency, luciferase assay in HAE cells (Example 19); format: cell-based; design: scale not given here; details: peptide:DNA 4:1, peptide [K]16 GACRRETAWACG
Experimental: The activity of various compositions of the invention was measured in HAE cells using a Luciferase assay. RLU/mg refers to relative light units per mg of protein. The assay was carried out as follows:
Lipid (10 mg/mL; […] [1 mg of lipid]) in chloroform was placed into a glass vial (sterile). The solvents were removed in vacuo and further traces of chloroform were removed on the high vacuum for 24 h. Cationic lipids were either formulated alone or with DOPE (mole ratio, 1:1).
Deionized water (1 mL; MilliQ) was added to the film, to generate […] solution of lipid in water. The mixture was allowed to hydrate at 4° C. for 24 h. After warming to 40° C. the mixture was sonicated to generate a clear solution (5 in approx). The resulting liposome formulations were stable for up to 3 months.
The components of the complex were mixed in the required weight ratio. The lipid was initially mixed with the peptide and the resulting mixture was added to the plasmid DNA.
Human airway epithelial cells were seeded for 24 h at 37 °C in complete growth medium in a […]. Transfection complexes were left to aggregate for 30 min and diluted to a concentration of 1 μg of DNA per 0.5 ml in OptiMEM (Life technologies). The medium was removed from each well and replaced with 0.5 ml of transfection complex and was allow to incubate for a further 4 h. The transfection complexes were removed and then replace with growth medium and the cells were allowed to incubate for 48 h.
The transfected cells were washed with phosphate-buffered saline (PBS). Reporter lysis buffer (100 μl) (Promega) was added to each well and cooled to 4 °C for 15 min. The cells were then assayed with a luciferase assay kit. The total light emission was measured for each well for 60 sec. The protein concentration of each sample was determined using a protein assay reagent and the activity expressed as relative light units per milligram of protein (RLU/mg).
The values obtained for the lipids produced in Examples 17 and 18 above and for Lipofectin were measured at 1:1 and 2:1 ratios of lipid:DNA, and in each case the ratio of peptide:DNA was 4:1, the peptide used being [K]16 GACRRETAWACG. The ratios are expressed in terms of weight. The testing procedure used was that outlined in Human Gene Therapy 9, 575-585, 1998.

integrins = details: cited from earlier work; for affinity and specificity for integrins: literature

Question: Which “luciferase activity, relative light units per mg of protein” value ([1]; 1:1 lipid:DNA by weight) does the source give for CCCCCCCC/C=C\CCCCCCCC(=O)OC(C[N+](C)(C)C)C(C[N+](C)(C)C)OC(=O)CCCCCCC/C=C\CCCCCCCC.[I-].[I-] (centres unmarked) [Example 17, 1,4-Di(trimethylammonium)-2,3-dioleoyloxy-butane; diiodide] here?
Answer: 1.2 RLU/mg

Question: What about the “luciferase activity, relative light units per mg of protein” value ([1]; 2:1 lipid:DNA by weight) of the same compound?
Answer: 2.0 RLU/mg

Question: What does the source list for CCCCCCCC/C=C\CCCCCCCCOC(C[N+](C)(C)C)C(C[N+](C)(C)C)OCCCCCCCC/C=C\CCCCCCCC (centres unmarked) [Example 18, 1,4-Di(trimethylammonium)-2,3-dioleyloxy-butane; diiodide]?
Answer: luciferase activity, relative light units per mg of protein ([1]; 1:1 lipid:DNA by weight): 43.2 RLU/mg; luciferase activity, relative light units per mg of protein ([1]; 2:1 lipid:DNA by weight): 373.3 RLU/mg

Question: For GACDCRGDCFCA [Peptide 5], which “affinity and specificity for integrins” value (integrins) is on record?
Answer: high affinity for integrin v but is not v-specific

Question: What about the integrin specificity (integrins; table of peptides) of the same compound?
Answer: Peptide 5 (αv)

Question: With GACRGDMFGCA [Peptide 1] as the compound, how does the “affinity and specificity for integrins” value (integrins) read?
Answer: affinity for 5 and av integrins but is non-specific

Question: For GACRRETAWACG [Peptide 6], which “affinity and specificity for integrins” value (integrins) is on record?
Answer: 51-specific
